Results on 17 compounds are retold here after patent publication US20260125375A1 (Pfizer Inc., priority 2022, published 2026).

Where two headings read alike, the source gives them in different places.

For test [1], the target named is T1, CBL-B (residues 36-427) (Homo sapiens, UniProt Q13191).
T1 construct: Purified CBL-B (residues 36-427) and C-CBL (residues 46-435) proteins from baculovirus-infected insect cells; made in house; host or cells: baculovirus-infected insect cells
In words: Ligand Displacement Assay (LDA), HTRF competitive binding against BODIPY-labeled fluorescent tracer, CBL-B. As to conditions: geometric mean of the number of tests, read-out: CBL-B Ki (nM) GMean. The essentials: (§1)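 Competition with a BODIPY fluorescent tracer was read by HTRF, each protein carrying an N-terminal biotinylated AviTag bound to Tb-streptavidin. Tracer KD values were set beforehand per protein; Ki derives from duplicate three-fold compound series ([…], 2% DMSO), averaged geometrically across tests.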

Test [2] has as its target T2, C-CBL (residues 46-435) (Homo sapiens, UniProt P22681).
T2 construct: Purified CBL-B (residues 36-427) and C-CBL (residues 46-435) proteins from baculovirus-infected insect cells; made in house; host or cells: baculovirus-infected insect cells
T2 sequence (P22681 46-435): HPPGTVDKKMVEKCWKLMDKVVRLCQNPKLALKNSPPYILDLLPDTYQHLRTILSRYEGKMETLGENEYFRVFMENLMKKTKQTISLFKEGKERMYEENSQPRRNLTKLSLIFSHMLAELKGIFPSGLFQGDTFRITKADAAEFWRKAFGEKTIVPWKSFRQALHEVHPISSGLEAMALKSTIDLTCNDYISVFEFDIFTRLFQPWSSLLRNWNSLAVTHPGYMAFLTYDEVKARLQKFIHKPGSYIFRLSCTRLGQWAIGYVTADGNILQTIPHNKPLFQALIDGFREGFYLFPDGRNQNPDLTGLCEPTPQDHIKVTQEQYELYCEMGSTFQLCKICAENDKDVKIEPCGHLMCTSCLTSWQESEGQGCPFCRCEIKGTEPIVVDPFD
As to the kind of experiment: Ligand Displacement Assay (LDA), HTRF competitive binding against BODIPY-labeled fluorescent tracer, C-CBL. As to conditions: geometric mean of the number of tests, read-out: C-CBL Ki (nM) GMean. The method, boiled down:
as §1

In test [3] the target is T3, CBL-B (Homo sapiens, UniProt Q13191).
T3 construct: endogenous in cells; host or cells: Jurkat HiBit-IL2 reporter cells, C-CBL knocked out by CRISPR
In words: Jurkat HiBit-IL2 assay (c-CBL KO), reporter cell line expressing CBL-B only. The class given is cell-based. To be noted: geometric mean, read-out: C-CBL KO EC50 (nM) GMean. The source says: (§2) Jurkat HiBit-IL2 Assay (WT, c-CBL KO, CBL-B KO)
(§3) The purpose of the Jurkat HiBit-IL2 assay is to evaluate the effect of the inhibition of CBL-B and/or C-CBL on TCR/CD28 stimulated interleukin-2 (IL-2) secretion.
(§4) The expression of IL-2 can then be accurately measured by HiBit luciferase assay. Further, C-CBL or CBL-B was knocked out by CRISPR respectively in this Jurkat HiBit-IL2 reporter cell line to create reporter cell line expressing CBL-B only (c-CBL knockout (KO)) or C-CBL only (CBL-B KO).
(§5) All three reporter cell lines were maintained in RPMI-1640 media with GlutaMax, 10% fetal bovine serum, 100 units/ml of penicillin, and 100 μg/ml of streptomycin at 37° C., 5% CO2, at a cell density 1×10e5-2×10e6 viable cells/ml. Serial diluted compounds in DMSO (40 nl/well, final 0.1% DMSO in assay cell culture) were plated into 384-well white-wall clear-bottom cell culture plates. Reporter cells were pelleted and resuspended in fresh cell culture medium to 0.66×10e6 cells/ml and added to the assay plate at 30 μl/well (20,000 cells/well). The cells were incubated with compounds for 1 hour at 37° C., 5% CO2. 10 μl/well of anti-CD3 antibody (OKT3) and anti-CD28 antibody (CD28.2) prediluted in fresh cell culture medium at 4× final concentration (anti-CD3 mAb: 4 μg/ml; anti-CD28 mAb: 8 μg/ml) was added into the cells (final concentration of anti-CD3 mAb: 1 μg/ml; anti-CD28 mAb: 2 μg/ml). The cells were cultured for another 4 hours at 37° C., 5% CO2. The Nano-Glo HiBiT Lytic Reagent was prepared following the manufacturer's protocol. 20 ul/well of the Nano-Glo HiBiT Lytic Reagent was added into the reporter cell culture assay plate and incubated at room temperature (20-25° C.) for 15 minutes. The plates were read on a Perkin-Elmer EnVision plate reader with 0.1 second integration time. Data were normalized to “Fold of Effect” with the anti-CD3 and anti-CD28 antibodies only samples as the baseline activation level and EC50 was calculated. The EC50 (nM) values reported are the geometric means (GMean) of the number of tests conducted.

For test [4], the target named is T4, C-CBL (Homo sapiens, UniProt P22681).
T4 construct: endogenous in cells; host or cells: Jurkat HiBit-IL2 reporter cells, CBL-B knocked out by CRISPR
As to the kind of experiment: Jurkat HiBit-IL2 assay (CBL-B KO), reporter cell line expressing C-CBL only. The class given is cell-based. As to conditions: geometric mean, read-out: CBL-B KO EC50 (nM) GMean.
Text: as §2, §3, §4, §5

[5] abbreviates: C-CBL KO (expressing CBL-B only), Table 16b (further repetition).
[6] abbreviates: CBL-B KO (expressing C-CBL only), Table 16b (further repetition).
Where [7] appears, read: c-CBL KO (CBL-B only), anti-CD3/anti-CD28 stimulation 4 hours, Table 16a.
Where [8] appears, read: CBL-B KO (C-CBL only), anti-CD3/anti-CD28 stimulation 4 hours, Table 16a.

Consider `C[C@H](NC1CCC1)c1nc(C(F)(F)F)cc2c(-c3cccc([C@H](c4nncn4C)C4COC4)c3)n[nH]c12` (single isomer, unassigned) [Example C123, N-{(1ξ)-1-[3-{3-[(ξ)-(4-methyl-4H-1,2,4-triazol-3-yl)(oxetan-3-yl)methyl]phenyl}-5-(trifluoromethyl)-1H-pyrazolo[3,4-c]pyridin-7-yl]ethyl}cyclobutanamine], for which the Ki worked out at 19.5 nM in test [1] and 189 nM in test [2]. Further, the values for the EC50 in test [3] (setting [5]) and in test [4] (setting [6]) were 185 nM and 1070 nM, respectively.

In the case of `CC(NC[C@H](C)O)c1nccc2c(-c3cccc([C@H](c4nncn4C)C4CCC4)c3)n[nH]c12` (single isomer, unassigned) [Example C124], the Ki in test [1] is 7.9 nM; in test [2], 109 nM. The EC50 in test [3] (setting [5]) is 348 nM; in test [4] (setting [6]) it was 3280 nM.

In the case of `C[C@H](NC(C)(C)CO)c1nc(C(F)(F)F)cc2c(-c3cccc([C@H](c4nncn4C)C4CCC4)c3)n[nH]c12` (single isomer, unassigned) [Example D17], the Ki in test [1] was 1.4 nM; in test [2], 33.2 nM. Moreover, the half-maximal effective concentration (EC50) in test [3] (setting [5]) was 43 nM; in test [3] (setting [7]), 19 nM; in test [4] (setting [8]) it was 270 nM; in test [4] (setting [6]) it was 552 nM.

With `C[C@H](O)CN[C@H](C)c1nc(C(F)(F)F)cc2c(-c3cccc([C@H](c4nncn4C)C4CCC4)c3)n[nH]c12` (single isomer, unassigned) [Example D18], the Ki in test [1] was 1 nM; in test [2], 9 nM. For the same compound, the EC50 was found to be 22 nM in test [3] (setting [5]), 10 nM in test [3] (setting [7]), 96 nM in test [4] (setting [8]) and 137 nM in test [4] (setting [6]).

On to `C[C@H](N[C@@H]1COC[C@@H]1O)c1nc(C(F)(F)F)cc2c(-c3cccc([C@H](c4nncn4C)C4CCC4)c3)n[nH]c12` (single isomer, unassigned) [Example D20], for which the Ki in test [1] worked out at 1.7 nM; in test [2], 2.3 nM. For the same compound, the 50% effective concentration (EC50) in test [3] (setting [5]) came out at 11 nM; in test [3] (setting [7]) it was 4 nM; in test [4] (setting [8]), 30 nM; in test [4] (setting [6]), 31 nM.

On to `C[C@H](N[C@H]1CC[C@@H]1O)c1nc(C(F)(F)F)cc2c(-c3cccc([C@H](c4nncn4C)C4CCC4)c3)n[nH]c12` (single isomer, unassigned) [Example D21], for which the Ki was 5.4 nM in test [1] and 68.1 nM in test [2]. Further, the half-maximal effective concentration (EC50) in test [3] (setting [5]) came out at 107 nM; in test [3] (setting [7]), 39 nM; in test [4] (setting [8]), 420 nM; in test [4] (setting [6]), 1150 nM.

`C[C@H](N[C@@H]1CC[C@H]1O)c1nc(C(F)(F)F)cc2c(-c3cccc([C@H](c4nncn4C)C4CCC4)c3)n[nH]c12` (single isomer, unassigned) [Example D23]: the figures for the Ki in test [1] and in test [2] were 1.8 nM and 9.9 nM, respectively. Moreover, the 50% effective concentration (EC50) in test [3] (setting [5]) amounted to 21 nM; in test [3] (setting [7]), 6 nM; in test [4] (setting [8]) it was 63 nM; in test [4] (setting [6]), 124 nM.

As to `C[C@@H](N[C@@H]1CC[C@H]1O)c1nc(C(F)(F)F)cc2c(-c3cccc([C@H](c4nncn4C)C4CCC4)c3)n[nH]c12` (single isomer, unassigned) [Example D24], the inhibition constant (Ki) came out at 2.2 nM in test [1] and 22.3 nM in test [2]. In addition, the EC50 in test [3] (setting [5]) turned out to be 58 nM; in test [3] (setting [7]), 22 nM; in test [4] (setting [8]), 285 nM; in test [4] (setting [6]) it was 452 nM.

Regarding `C[C@H](NC[C@@H](C)O)c1nc(C(F)(F)F)cc2c(-c3cccc([C@H](c4nncn4C)C4CCC4)c3)n[nH]c12` (single isomer, unassigned) [Example D25], the Ki was 6.4 nM in test [1] and 51.1 nM in test [2]. In addition, the 50% effective concentration (EC50) in test [3] (setting [5]) turned out to be 101 nM; in test [3] (setting [7]) it was 20 nM; in test [4] (setting [8]) it was 174 nM; in test [4] (setting [6]), 359 nM.

Take `C[C@@H](O)CN[C@H](C)c1nc(C(F)(F)F)cc2c(-c3cccc([C@H](c4nncn4C)C4CCC4)c3)n[nH]c12` (single isomer, unassigned) [Example D26]: the Ki was found to be 1.8 nM in test [1] and 14 nM in test [2]. Further, the EC50 in test [3] (setting [5]) worked out at 30 nM; in test [3] (setting [7]), 9 nM; in test [4] (setting [8]), 122 nM; in test [4] (setting [6]) it was 180 nM.

As for `C[C@H](N[C@@H](C)CO)c1nc(C(F)(F)F)cc2c(-c3cccc([C@H](c4nncn4C)C4CCC4)c3)n[nH]c12` (single isomer, unassigned) [Example D27], the figures for the inhibition constant Ki in test [1] and in test [2] were 1 nM and 9.1 nM, respectively. The EC50 amounted to 24 nM in test [3] (setting [5]), 11 nM in test [3] (setting [7]), 194 nM in test [4] (setting [8]) and 209 nM in test [4] (setting [6]).

For the compound `C[C@@H](N[C@@H]1CC[C@@H]1O)c1nc(C(F)(F)F)cc2c(-c3cccc([C@H](c4nncn4C)C4CCC4)c3)n[nH]c12` (single isomer, unassigned) [Example D29], the Ki in test [1] was 1.9 nM; in test [2], 23.7 nM. Moreover, the EC50 stood at 36 nM in test [3] (setting [5]), 11 nM in test [3] (setting [7]), 139 nM in test [4] (setting [8]) and 224 nM in test [4] (setting [6]).

Turning to `C[C@@H](NC1CC[C@H]1O)c1nc(C(F)(F)F)cc2c(-c3cccc([C@H](c4nncn4C)C4CCC4)c3)n[nH]c12` (single isomer, unassigned) [Example D31], the Ki in test [1] is 4 nM; in test [2], 27.3 nM. Also, the EC50 in test [3] (setting [5]) stood at 56 nM; in test [3] (setting [7]) it was 16 nM; in test [4] (setting [8]), 199 nM; in test [4] (setting [6]), 258 nM.

For `C[C@@H](NC(C)(C)CO)c1nc(C(F)(F)F)cc2c(-c3cccc([C@H](c4nncn4C)C4CCC4)c3)n[nH]c12` (single isomer, unassigned) [Example D55], the results for the Ki in test [1] and in test [2] were 4.8 nM and 76.5 nM, respectively. The EC50 in test [3] (setting [5]) amounted to 80 nM; in test [4] (setting [6]), 642 nM.

As for `C[C@@H](N[C@@H]1COC[C@@H]1O)c1nc(C(F)(F)F)cc2c(-c3cccc([C@H](c4nncn4C)C4CCC4)c3)n[nH]c12` (single isomer, unassigned) [Example D56], the figures for the Ki in test [1] and in test [2] were 6.2 nM and 62.3 nM, respectively. Further, the figures for the EC50 in test [3] (setting [5]) and in test [4] (setting [6]) were 84 nM and 365 nM, respectively.

In the case of `C[C@H](N[C@@H]1COC[C@H]1O)c1nc(C(F)(F)F)cc2c(-c3cccc([C@H](c4nncn4C)C4CCC4)c3)n[nH]c12` (single isomer, unassigned) [Example D59], the values for the Ki in test [1] and in test [2] were 2.6 nM and 26.6 nM, respectively. For the same compound, the figures for the EC50 in test [3] (setting [5]) and in test [4] (setting [6]) were 267 nM and 1260 nM, respectively.

Regarding `C[C@@H](CO)N[C@H](C)c1nc(C(F)(F)F)cc2c(-c3cccc([C@H](c4nncn4C)C4CCC4)c3)n[nH]c12` (single isomer, unassigned) [Example D63], the figures for the inhibitory constant (Ki) in test [1] and in test [2] were 8.4 nM and 67 nM, respectively. For the same compound, the concentration for a half-maximal effect (EC50) was 121 nM in test [3] (setting [5]) and 577 nM in test [4] (setting [6]).
